30 molecules from ChEMBL document CHEMBL2406973, “Synthesis of novel diarylamino-1,3,5-triazine derivatives as FAK inhibitors with anti-angiogenic activity” (Bioorg Med Chem Lett, 2013) can be followed below.

The target of one assay is Focal adhesion kinase 1 (Homo sapiens, UniProt Q05397). Description: Inhibition of pre-activated recombinant full length FAK (unknown origin) using ULight labeled poly(Glu/Tyr) as substrate after 1.6 hrs by TR-FRET assay.
Another assay deals with HUVEC. Description: Antiangiogenic activity in HUVEC assessed as inhibition of VEGF-stimulated proliferation after 72 hrs by WST-1 assay. The format is functional, cell-based. The note with it: Homo sapiens.

Sequence of Focal adhesion kinase 1 (Q05397 whole entry): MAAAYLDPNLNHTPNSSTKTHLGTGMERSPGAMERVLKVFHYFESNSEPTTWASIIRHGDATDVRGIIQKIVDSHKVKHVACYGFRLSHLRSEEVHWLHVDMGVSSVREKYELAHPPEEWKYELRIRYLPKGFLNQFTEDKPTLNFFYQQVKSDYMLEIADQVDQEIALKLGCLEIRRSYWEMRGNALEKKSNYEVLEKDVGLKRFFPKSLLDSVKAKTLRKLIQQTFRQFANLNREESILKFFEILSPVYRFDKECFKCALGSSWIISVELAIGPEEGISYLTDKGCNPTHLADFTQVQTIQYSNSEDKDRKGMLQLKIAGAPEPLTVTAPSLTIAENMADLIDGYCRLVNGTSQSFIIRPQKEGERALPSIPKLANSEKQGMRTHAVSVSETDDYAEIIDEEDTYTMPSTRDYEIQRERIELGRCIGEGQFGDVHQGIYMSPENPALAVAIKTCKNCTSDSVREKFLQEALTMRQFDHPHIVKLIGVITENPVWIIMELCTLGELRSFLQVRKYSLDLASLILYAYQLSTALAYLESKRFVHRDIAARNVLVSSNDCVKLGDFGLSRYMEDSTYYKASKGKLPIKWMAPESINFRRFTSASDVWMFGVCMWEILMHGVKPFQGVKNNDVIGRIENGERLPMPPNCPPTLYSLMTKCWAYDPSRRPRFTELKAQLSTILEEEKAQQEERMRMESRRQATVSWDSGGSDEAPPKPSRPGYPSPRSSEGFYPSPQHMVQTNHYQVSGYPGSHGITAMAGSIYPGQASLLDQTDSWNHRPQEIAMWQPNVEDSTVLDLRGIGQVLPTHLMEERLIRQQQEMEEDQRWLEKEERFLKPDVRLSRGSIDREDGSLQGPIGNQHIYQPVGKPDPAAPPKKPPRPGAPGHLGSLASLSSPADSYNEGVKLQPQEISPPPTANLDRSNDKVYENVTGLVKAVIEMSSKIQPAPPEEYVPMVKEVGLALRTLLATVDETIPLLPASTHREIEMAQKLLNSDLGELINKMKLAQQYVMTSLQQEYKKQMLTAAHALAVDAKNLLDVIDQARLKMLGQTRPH

With `COc1cc(Nc2nc(Cl)nc(Nc3cccc(NS(C)(=O)=O)c3)n2)cc(OC)c1OC`, the IC50 at Focal adhesion kinase 1 came to 57.8 µM; in the assay with HUVEC, 13.3 µM.

On to `COC(=O)Nc1ccccc1Nc1nc(C)nc(Nc2cc(OC)c(OC)c(OC)c2)n1`, for which the IC50 at Focal adhesion kinase 1 came to 35.9 µM; in the assay on HUVEC, 15.8 µM.

`CCNC(=O)c1ccccc1Nc1ncnc(Nc2ccc(CN)cc2)n1`: the half-inhibitory concentration (IC50) on Focal adhesion kinase 1 is 0.44 µM; with HUVEC it was 2.8 µM.

For `CC(C)NC(=O)c1ccccc1Nc1ncnc(Nc2ccc(CN)cc2)n1`, the IC50 on Focal adhesion kinase 1 came out at 1 µM; in the assay on HUVEC it was 3.2 µM.

Take `CNC(=O)c1ccccc1Nc1nc(Nc2ccc(N3CCOCC3)cc2OC)ncc1Cl`: the half-inhibitory concentration (IC50) with HUVEC came to 1 µM.

On to `COc1cc(Nc2nc(Cl)nc(Nc3ccccc3NS(C)(=O)=O)n2)cc(OC)c1OC`, for which the results for the concentration for half-maximal inhibition (IC50) on Focal adhesion kinase 1 and with HUVEC were 41.9 µM and 9.5 µM, respectively.

As for `CNC(=O)c1ccccc1Nc1ncnc(Nc2ccc(N3CCOCC3)cc2OC)n1`, the IC50 in the assay on HUVEC came out at 1.5 µM.

`COc1ccc(Nc2ncnc(Nc3ccccc3NS(C)(=O)=O)n2)c(OC)c1`: the half-maximal inhibitory concentration (IC50) on Focal adhesion kinase 1 turned out to be 6.1 µM; in the assay with HUVEC, 2.7 µM.

Consider `COc1cc(Nc2nc(Nc3ccccc3NC(C)=O)nc(C(F)(F)F)n2)cc(OC)c1OC`, for which the values for the IC50 at Focal adhesion kinase 1 and in the assay with HUVEC were 126 µM and 33.3 µM, respectively.

With `COc1cc(Nc2ncnc(Nc3ccccc3NS(C)(=O)=O)n2)cc(OC)c1OC`, the IC50 at Focal adhesion kinase 1 was determined as 5.1 µM; in the assay on HUVEC, 6.1 µM.

For the molecule `CNC(=O)c1ccccc1Nc1ncnc(Nc2cc(OC)c(OC)c(OC)c2)n1`, the results for the IC50 on Focal adhesion kinase 1 and in the assay with HUVEC were 0.4 µM and 2.5 µM, respectively.

Turning to `CNC(=O)c1ccccc1Nc1ncnc(Nc2ccc(OC)cc2OC)n1`, the figures for the IC50 at Focal adhesion kinase 1 and with HUVEC were 1.5 µM and 6.5 µM, respectively.

For `COc1cc(Nc2ncnc(Nc3ccccc3C(=O)NC3CC3)n2)cc(OC)c1OC`, the IC50 turned out to be 6.1 µM at Focal adhesion kinase 1 and 5.9 µM with HUVEC.

As to `CNc1nc(Nc2cccc(NS(C)(=O)=O)c2)nc(Nc2cc(OC)c(OC)c(OC)c2)n1`, the figures for the IC50 at Focal adhesion kinase 1 and in the assay with HUVEC were 41.3 µM and 10 µM, respectively.

Consider `COc1cc(Nc2ncnc(Nc3ccccc3C(=O)NCCN(C)C)n2)cc(OC)c1OC`, for which the IC50 is 10.2 µM at Focal adhesion kinase 1 and 9.4 µM in the assay with HUVEC.

For the molecule `COC(=O)c1ccccc1Nc1ncnc(Nc2cc(OC)c(OC)c(OC)c2)n1`, the concentration for half-maximal inhibition (IC50) at Focal adhesion kinase 1 was found to be 17.9 µM; with HUVEC, 23.2 µM.

Consider `CCC(CC)NC(=O)c1ccccc1Nc1ncnc(Nc2ccc(CN)cc2)n1`, for which the concentration for half-maximal inhibition (IC50) on Focal adhesion kinase 1 stood at 1.9 µM; in the assay with HUVEC, 1.4 µM.

Take `CNc1nc(Nc2cc(OC)c(OC)c(OC)c2)nc(Nc2ccccc2NS(C)(=O)=O)n1`: the IC50 on Focal adhesion kinase 1 amounted to 65.9 µM; in the assay on HUVEC it was 34.2 µM.

As to `CNC(=O)c1ccccc1Nc1ncnc(Nc2ccc(CN)cc2)n1`, the IC50 at Focal adhesion kinase 1 was 0.16 µM; with HUVEC, 2.1 µM.

Regarding `CNC(=O)c1ccccc1Nc1ncnc(Nc2cc(CCC(N)=O)c(OC)c(OC)c2)n1`, the IC50 was 0.3 µM on Focal adhesion kinase 1 and 1.3 µM in the assay with HUVEC.

With `COc1cc(Nc2nc(C)nc(Nc3ccccc3NS(C)(=O)=O)n2)cc(OC)c1OC`, the results for the IC50 at Focal adhesion kinase 1 and with HUVEC were 7.9 µM and 8.5 µM, respectively.

Take `COc1cc(Nc2ncnc(Nc3ccccc3C(=O)NC(C)C)n2)cc(OC)c1OC`: the half-inhibitory concentration (IC50) amounted to 2.2 µM on Focal adhesion kinase 1 and 4 µM with HUVEC.

In the case of `COc1cc(Nc2ncnc(Nc3ccccc3C(=O)NC3CCCC3)n2)cc(OC)c1OC`, the half-maximal inhibitory concentration (IC50) was found to be 5.2 µM on Focal adhesion kinase 1 and 3.9 µM in the assay with HUVEC.

Take `COc1cc(Nc2nc(C)nc(Nc3ccccc3NC(=O)N(C)C)n2)cc(OC)c1OC`: the IC50 on Focal adhesion kinase 1 was found to be 54.3 µM; with HUVEC, 27.3 µM.

With `COc1ccc(Nc2ncnc(Nc3ccccc3NC(C)=O)n2)c(OC)c1`, the IC50 at Focal adhesion kinase 1 came out at 21.1 µM; in the assay with HUVEC, 11.2 µM.

Turning to `CCC(CC)NC(=O)c1ccccc1Nc1ncnc(Nc2cc(OC)c(OC)c(OC)c2)n1`, the half-maximal inhibitory concentration (IC50) came out at 6 µM at Focal adhesion kinase 1 and 5.3 µM with HUVEC.

For the molecule `COc1cc(Nc2nc(C)nc(Nc3ccccc3NC(C)=O)n2)cc(OC)c1OC`, the figures for the IC50 at Focal adhesion kinase 1 and with HUVEC were 50.8 µM and 18.8 µM, respectively.

As for `COc1cc(Nc2ncnc(Nc3ccccc3C(=O)NCCO)n2)cc(OC)c1OC`, the half-inhibitory concentration (IC50) was 23.8 µM at Focal adhesion kinase 1 and 17.5 µM in the assay on HUVEC.

As to `COc1cc(Nc2ncnc(Nc3cccc(NS(C)(=O)=O)c3)n2)cc(OC)c1OC`, the IC50 was 9.2 µM at Focal adhesion kinase 1 and 7.2 µM with HUVEC.

With `CS(=O)(=O)Nc1ccccc1Nc1ncnc(Nc2ccc(CN)cc2)n1`, the IC50 on Focal adhesion kinase 1 is 2.3 µM; in the assay with HUVEC it was 3.9 µM.
